Data as given in patent US5998594A, “Self-assembling, chromogenic receptors for the recognition of medically important substrates and their method of use” (University of Pittsburgh of the Commonwealth System of …, priority 1994, dated 1999).

Columns and labels:
[1] = NMR titration with pimelic acid; format: binding
Text: (§1) Complexation of Receptor 1 with Dicarboxylic Acids. Receptor 1 is a bis(acylaminopyridine) receptor and as such was expected to form strong bidentate interactions with dicarboxylic acids in chloroform. This was indeed the case, as 1 was found by NMR to bind glutaric acid with an association constant of 3.6×10^4 M^-1. Large changes in proton chemical shifts of 1 indicate that the dicarboxylic acid is hydrogen bonded simultaneously to the two acylaminopyridines moieties. […] The contribution of the phenanthroline to binding is uncertain, but it appears to play only a minor role; no protons on the phenanthroline ring shifted more than 0.014 ppm during the course of the titration. […] The stoichiometry of the complexes was 2:1 as determined by the concentration of dicarboxylic acid at which saturation of the receptor was found and independently determined by a Job's plot. A Job's plot is used to measure stoichiometry based on continuous variations of constant concentrations. Binding was most conveniently followed by UV-vis spectroscopy (ΔA550) and was checked against NMR results for pimelic acid and glutaric acid. The binding data was analyzed by assuming that two independent and equal bidentate binding sites are interacting with the substrate. In this way a single association constant is obtained that represents the strength of binding of one of the receptor binding sites with one substrate. […]

[2] = UV-vis titration (ΔA550) with 1,3-phenylenediacetic acid in CHCl3; format: binding
Text: (§2) Complexation of Receptor 1 with Dicarboxylic Acids. Receptor 1 is a bis(acylaminopyridine) receptor and as such was expected to form strong bidentate interactions with dicarboxylic acids in chloroform. This was indeed the case, as 1 was found by NMR to bind glutaric acid with an association constant of 3.6×10^4 M^-1. Large changes in proton chemical shifts of 1 indicate that the dicarboxylic acid is hydrogen bonded simultaneously to the two acylaminopyridines moieties. […] The contribution of the phenanthroline to binding is uncertain, but it appears to play only a minor role; no protons on the phenanthroline ring shifted more than 0.014 ppm during the course of the titration. […] The stoichiometry of the complexes was 2:1 as determined by the concentration of dicarboxylic acid at which saturation of the receptor was found and independently determined by a Job's plot. A Job's plot is used to measure stoichiometry based on continuous variations of constant concentrations. Binding was most conveniently followed by UV-vis spectroscopy (ΔA550) and was checked against NMR results for pimelic acid and glutaric acid. The binding data was analyzed by assuming that two independent and equal bidentate binding sites are interacting with the substrate. In this way a single association constant is obtained that represents the strength of binding of one of the receptor binding sites with one substrate. […] An exception was N-Cbz-glutamic acid, which is understandable because there are several diastereotopic complexes present (vide infra), each with a different Ka.
(§3) Also reported in Table 2 are the λmax and the relative change in the absorptivity at 550 nm for each substrate/receptor combination. The changes in the absorption spectra are definitely substrate dependent. For example, complexation of pimelic acid results in a less pronounced increase in the shoulder near the red edge and a smaller blue shift in λmax (for Cu(1)2^+ BF4^-,λmax =445 nm) than complexation of the 5-carbon acids, glutaric and N-Cbz-glutamic. […]

[3] = UV-vis titration (ΔA550) with N-Cbz-glutamic acid in CHCl3; format: binding
Text: as §1, with “Binding was most conveniently followed by UV-vis spectroscopy (ΔA550) and was checked against NMR results for pimelic acid and glutaric acid.” left out, “substrate.” for “substrate. In this way a single association constant is obtained that represents the strength of binding of one of the receptor binding sites with one substrate.”
In the binding mode proposed in FIG. 5, the structure of the 2:1 complex of glutaric acid with Cu(1)2^+ BF4^- is chiral, similar to a double helix. […] This complicates the analysis of binding because six possibly different binding constants need to be evaluated. […]

[4] = UV-vis titration (ΔA550) with glutaric acid in CHCl3; format: binding
Protocol: FIG. 3 discloses the change in the visible absorption spectrum of Cu(1)2^+ BF4^- upon addition of glutaric acid in CHCl3 [Cu(1)2^+ BF4^- ]=0.106 mM, [glutaric acid]=0-0.5 mM.
FIG. 4 discloses the change in the visible absorption spectrum of [Cu(L)2^+ BF4^- ] upon addition of glutaric acid in CHCl3. [Cu(L)2^+ BF4^- ]=0-0.125 mM [glutaric acid]=0-0.40 mM.
as §2
(§4) From comparison of FIG. 3 with FIG. 4 which is a change in the visible absorption spectrum of Cu(L)2^+ BF4^- upon addition of glutaric acid, it is clear that the bis-dicarboxylic acid receptor, Cu(1)2^+ BF4^-, is more chromogenic than a mono-dicarboxylic acid receptor, Cu(L)2^+ BF4^-. [drawing 1] The relative change in A550 is 3-4 times greater for Cu(1)2^+ BF4^- than for Cu(L)2^+ BF4^-. A summary of the spectral changes that occur upon complex formation are present in Table 2 below. […]
The origin of the chromogenic effect is definitely a direct result of the bidentate binding of dicarboxylic acids to the receptors. Addition of large excesses of monocarboxylic acids (acetic or trifluoroacetic) to a CHCl3 solution of either Cu(I)-based receptor leads to only minor changes in the absorbance spectrum. […]

air stability = format: physicochemical; settings: Cu(I) complex
[5] = complexation with dicarboxylic acids in CHCl3 (UV-vis, NMR, Job's plot); format: binding
Text: as §2, §4

[6] = UV-vis titration (ΔA550) with pimelic acid in CHCl3; format: binding
Text: as §2, §3

[7] = NMR titration with glutaric acid; format: binding
Text: as §1

[8] = CHCl3, UV-vis ΔA550, per binding site

| SMILES | Binding Constant (Ka) NMR [1] [M⁻¹] | spectral change relative to the other dicarboxylic acids [2] | Binding Constant (Ka) UV-vis [2, 8] [M⁻¹] | % Increase ( = 550 nm) ([2]; absorptivity at 550 nm) [%] | Binding Constant (Ka) UV-vis ([3]; CHCl3, UV-vis ΔA550, several diastereomeric complexes, all Ka assumed equal) [M⁻¹] | % Increase ( = 550 nm) ([3]; absorptivity at 550 nm) [%] | Binding Constant (Ka) UV-vis ([4]; glutaric acid, CHCl3, UV-vis ΔA550, per binding site) [M⁻¹] | relative change in A550, compared with Cu(L)2^+ BF4^- ([4]; glutaric acid, FIG. 3 vs FIG. 4) | % Increase ( = 550 nm) ([4]; glutaric acid, absorptivity at 550 nm) [%] | color change upon complexation ([4]; two equivalents of glutaric acid) | air stability (air stability) | positive cooperativity in binding of second equivalent of dicarboxylic acid [5] | color change on binding ([5]; each dicarboxylic acid of Table 1) | spectral change relative to the other dicarboxylic acids [6] | Binding Constant (Ka) UV-vis [6, 8] [M⁻¹] | % Increase ( = 550 nm) ([6]; absorptivity at 550 nm) [%] | Binding Constant (Ka) NMR [7] [M⁻¹] | receptor strength for dicarboxylic acids ([5]; uncoordinated ligand) | association constant ([7]; uncoordinated receptor, chloroform) [M⁻¹] |
| --- | --- | --- | --- | --- | --- | --- | --- | --- | --- | --- | --- | --- | --- | --- | --- | --- | --- | --- | --- |
| Cc1cccc(NC(=O)c2ccc(-c3ccc4ccc5ccc(-c6ccc(C(=O)Nc7cccc(C)n7)cc6)nc5c4n3)cc2)n1.Cc1cccc(NC(=O)c2ccc(-c3ccc4ccc5ccc(-c6ccc(C(=O)Nc7cccc(C)n7)cc6)nc5c4n3)cc2)n1.F[B-](F)(F)F.[Cu+] [Cu(1)2^+ BF4^-] | 40000 | largest change | 35000 | 111 | 40000 | 105 | 78000 | 3-4 times | 101 | obvious color change from pale orange to bright red | air stable | not observed | distinct color change from pale orange to bright red | smallest changes in the spectrum | 17000 | 62 | 71000 |  |  |
| Cc1cccc(NC(=O)c2ccc(-c3ccc4ccc5ccc(-c6ccc(C(=O)Nc7cccc(C)n7)cc6)nc5c4n3)cc2)n1 [Receptor 1] |  |  |  |  |  |  |  |  |  |  |  |  |  |  |  |  |  | good receptor for dicarboxylic acids | 36000 |
